Where two headings read alike, the source gives them in different places.
What was measured:
[1] = system: CCRF-CEM/Taxol; assay: In vitro cytotoxicity, XTT assay, taxol resistant subline; format: cell-based, human; conditions: for IC50: XTT assay, 72-hr incubation; for fold of cross-resistant, CCRF-CEM/Taxol vs IC50 of the parent cell line: numbers in brackets
Text: (§1) Human colon carcinoma HCT-116 cells, human prostate adenocarcinoma PC-3 and adenocarcinoma SK-OV-3 cells were obtained from American Type Culture Collection (ATCC, Rockville, Md.). Human mammary carcinoma (MX-1) tumor cells were obtained from MSKCC cell bank. The CCRF-CEM human lymphoblastic leukemia cells and their vinblastine resistant subline (CCRF-CEM/VBL, 680-fold resistance in vitro) were obtained from Dr. William Beck of the University of Illinois, Chicago, and CCRF-CEM/Taxol (330-fold resistance in vitro). Resistant cells CCRF-CEM/taxol were produced by exposing the parent cells to increasing sublethal concentration (IC50-IC90) of paclitaxel for six months.
(§2) In preparation for in vitro cytotoxicity assays, cells were cultured at an initial density 2-5×10^4 cells per milliliter. They were maintained in a 5% CO2-humidified atmosphere at 37° C. in RPMI medium 1640 (GIBCO/BRL) containing penicillin (100 units/mL), streptomycin (100 μg/mL, GIBCO/BRL), and 5% heat-inactivated FBS. For cells grown in suspension (such as CCRF-CEM and its sublines), cytotoxicity was measured, by using XTT microculture method in 96-well microtiter plates (Scudiero D A et al., Cancer Res. 1988, 48, 4827-4833). For solid tumor cells growing in a monolayer (such as MX-1 and HCT-116), cytotoxicity of the drug was determined, in duplicate, in 96-well microtiter plates by using the sulforhodamine B method (Skehan P et al., J. Natl. Cancer Inst 1990, 82, 1107-1112). For both methods, the absorbance of each well was measured with a microplate reader (Power Wave XS, Bio-Tek, Winooski, Vt.) after 72-hr incubation as described previously (Chou T-C et al., Proc. Natl. Acad. Sci. USA 2001, 98, 8113-8118). Dose-effect relationship data from 6 to 7 concentrations of each drug, in duplicate, were analyzed by using a computer program (Chou T-C et al., ComboSyn, Inc., Paramus, N J. 2005) based on the median-effect principle and plot (Chou T-C et al., Adv. Enzyme Regul. 1984, 22, 27-55; Chou T-C, Pharmacol. Rev. 2006, 58, 621-681).
(§3) The IC50 is defined by the concentration required to inhibit tumor cell growth by 50%. […] The growth inhibition of the compounds disclosed herein against human lymphoblastic leukemic cells (CCRF-CEM) and its drug-resistant sublines (resistant to vinblastine and taxol, CCRF-CEM/VBL and CCRF-CEM/taxol, respectively) is also shown in Table 5. […] Thus, the compounds disclosed herein are effective against multiple drug resistant tumors.

[2] = system: Human mammary carcinoma (MX-1) tumor cells; assay: In vitro cytotoxicity, sulforhodamine B (SRB) assay; format: cell-based; conditions: 72-hr incubation
Text: as §1, §2, §3

[3] = system: Human colon carcinoma HCT-116 cells; assay: as above; format: cell-based
Text: as §1, §2, §3

[4] = system: human mammary carcinoma MX-1 xenograft; assay: Therapeutic effect in nude mice bearing MX-1 xenograft; format: in vivo; conditions: 5 mg/kg, daily (QD) 3 times, intravenous injection
Method: FIGS. 2A-B illustrates the therapeutic effect of DA-1090, 1099, 1124, 1012 and 1107 in nude mice bearing human mammary carcinoma MX-1 xenograft (i.v. inj, n=3-4), average tumor size changes (FIG. 2A) and average body weight changes (FIG. 2B).
Athymic nude mice bearing the nu/nu gene were obtained from NCI, Frederick, Md. and used for all human tumor xenografts. Male nude mice, 6 weeks or older, weighing 20-24 g or more were used. Compounds were administered via the tail vein for i.v. injection or infusion as described previously (Chou T-C et al., Proc. Natl. Acad. Sci. USA 2001, 98, 8113-8118). Various formulations were prepared for injections into the mice for chemotherapeutic studies. As an example, a drug was dissolved in DSMO to make a 25 mg/ml fresh solution, 0.4 ml of this solution was mixed with 0.3 ml of Tween 80, plus 1.3 ml to make 2 ml of 5 mg/ml solution. Bolus injection volume was 0.1-0.2 ml per mouse.
Athymic nude mice bearing the nu/nu gene were used for human breast tumor MX-1 xenograft (FIGS. 2, 2A and 2B). Nude mice were obtained from National Cancer Institute, Frederick, Md. Male mice, 6 weeks old or older, weighing 22 g or more were used for experiments with subcutaneous tumor inoculation as described previously (Chou T-C, Pharmacol. Rev. 2006, 58, 621-681). Drug was administrated via the tail vein by iv injection. Tumor volumes were assessed by measuring length×width×height (or width) by using caliper. An example of vehicle used was 20 μL DMSO in 180 μL saline. All animal studies were conducted in accordance with the guidelines of the U.S. National Institutes of Health Guide for the Care and Use of Animals and the protocol approved by the Institutional Animal Care and Use Committee.

[5] = system: CCRF-CEM/VBL; assay: In vitro cytotoxicity, XTT assay, vinblastine resistant subline; format: cell-based, human; conditions: for IC50: XTT assay, 72-hr incubation; for fold of cross-resistant, CCRF-CEM/VBL vs IC50 of the parent cell line: numbers in brackets
Text: as §1, §2, §3

[6] = system: CCRF-CEM human lymphoblastic leukemia cells; assay: In vitro cytotoxicity, XTT assay, 72-hr incubation; format: cell-based
Text: as §1, §2, §3

[7] = Homo sapiens, HCT-116, 72-hr incubation

| SMILES | IC50 ([1]; Homo sapiens, CCRF-CEM) | fold of cross-resistant, CCRF-CEM/Taxol vs IC50 of the parent cell line [1] | IC50 ([2]; Homo sapiens) | IC50 [3, 7] | antitumor therapeutic effect (tumor size) [4] | toxicity [4] | IC50 ([5]; Homo sapiens, CCRF-CEM) | fold of cross-resistant, CCRF-CEM/VBL vs IC50 of the parent cell line [5] | IC50 ([6]; Homo sapiens, CCRF-CEM) | IC50 [1] | IC50 [2] | IC50 ([3]; 72-hr incubation) | IC50 [5] | IC50 [6] |
| --- | --- | --- | --- | --- | --- | --- | --- | --- | --- | --- | --- | --- | --- | --- |
| CNC(=O)OCc1c(COC(=O)NC)c(-c2ccc(OC)cc2)n2c1Cc1ccccc1-2 [DA-1012, Methylcarbamic acid 3-(4-methoxy-phenyl)-2-methylcarbamoyloxymethyl-8H-3a-azacyclopenta[a]inden-1-ylmethyl ester] | 58 nM | [1.2x] | 1940 nM | 2740 nM | tumor total disappearance | low toxicity | 70 nM | [1.4x] | 49 nM | – | – | – | – | – |
| CNC(=O)OCc1c(COC(=O)NC)c(-c2ccc(Cl)cc2)n2c1Cc1ccccc1C2 [DA-1117, methylcarbamic acid 3-(4-chlorphenyl)-2-methylcarbamoyloxymethyl-5,10-dihydropyrrolo[1,2-b]isoquinolin-1-ylmethyl ester] | – | [1.13x] | – | – | – | – | – | [1.09x] | – | 216 nM | 1170 nM | 356 nM | 208 nM | 191 nM |
| CNC(=O)OCc1c(COC(=O)NC)c(-c2ccc(OC)cc2)n2c1Cc1ccccc1C2 [DA-1109, methylcarbamic acid 3-(4-methoxyphenyl)-2-methylcarbamoyloxymethyl-5,10-dihydr-pyrrolo[1,2-b]isoquinolin-1-ylmethyl ester] | – | [0.88x] | – | – | – | – | – | [0.60x] | – | 161 nM | 1310 nM | 1110 nM | 111 nM | 184 nM |
| CNC(=O)OCc1c(COC(=O)NC)c(-c2ccc(F)cc2)n2c1Cc1ccccc1-2 [DA-1026, Methylcarbamic acid 3-(4-flourophenyl)-2-methylcarbamoyloxymethyl-8H-3a-aza-cyclopenta[a]inden-1-ylmethyl ester] | – | [2.1x] | – | – | – | – | – | [2.2x] | – | 284 nM | 744 nM | 397 nM | 307 nM | 137 nM |
| OCc1c(CO)c(-c2ccc(F)c(F)c2)n2c1Cc1ccccc1-2 [DA-1025, (3-(3,4-Diflourophenyl)-2-hydroxymethyl-8H-3a-aza-cyclopenta[a]inden-1-yl)methanol] | – | [1.6x] | – | – | – | – | – | [1.98x] | – | 7780 nM | 7000 nM | 10800 nM | 7270 nM | 4910 nM |
| COc1ccc(-c2c(CO)c(CO)c3n2-c2ccc(OC)cc2C3)cc1 [DA-1130, (2-hydroxymethyl-6-methoxy-3-(4′-methoxyphenyl)-8H-3a-aza-cyclopenta[a]inden-1-yl)methanol] | – | [1.10x] | – | – | – | – | – | [0.52x] | – | 130 nM | 1520 nM | 610 nM | 61 nM | 118 nM |
| COc1ccc(-c2c(CO)c(CO)c3n2-c2ccccc2C3)cc1 [DA-1005, (2-Hydroxymethyl-3-(4-methoxyphenyl)-8H-3a-aza-cyclopenta[a]inden-1-yl)methanol] | 1660 nM | [1.4x] | 10800 nM | 5830 nM | – | – | 1670 nM | [1.4x] | 1160 nM | – | – | – | – | – |
| CNC(=O)OCc1c(COC(=O)NC)c2n(c1C)Cc1ccccc1C2 [DA-1108, methylcarbamic acid 3-methyl-1-methylcarbamoyloxymethyl-5,10-dihydro-pyrrolo[1,2-b]isoquinolin-2-ylmethyl ester] | 111 nM | [0.87x] | 1680 nM | 1160 nM | – | – | 76 nM | [0.59x] | 128 nM | – | – | – | – | – |
| CNC(=O)OCc1c(COC(=O)NC)c(-c2ccc(F)c(F)c2)n2c1Cc1ccccc1C2 [DA-1113, methylcarbamic acid 3-(3,4-difluorophenyl)-2-methylcarbamoyloxymethyl-5,10-dihydropyrrolo[1,2-b]isoquinolin-1-methyl ester] | – | [1.32x] | – | – | – | – | – | [1.06x] | – | 643 nM | 2710 nM | 358 nM | 519 nM | 488 nM |
| CNC(=O)OCc1c(COC(=O)NC)c2n(c1C)-c1ccccc1C2 [DA-1100, methyl carbamic acid 3-methyl-2-methylcarbamoyloxymethyl-8H-3a-aza-cyclopenta[a]inden-1-yl methyl ester] | 67 nM | [0.36x] | 355 nM | 297 nM | – | – | 126 nM | [0.67x] | 188 nM | – | – | – | – | – |
| CNC(=O)OCc1c(COC(=O)NC)c(-c2ccc(F)c(F)c2)n2c1Cc1ccccc1-2 [DA-1027, Methylcarbamic acid 3-(3,4-diflourophenyl)-2-methylcarbamoyloxymethyl-8H-3a-aza-cyclopenta[a]inden-1-ylmethyl ester] | – | [1.0x] | – | – | – | – | – | [0.99x] | – | 644 nM | 7840 nM | 878 nM | 632 nM | 639 nM |
| CNC(=O)OCc1c(COC(=O)NC)c(-c2ccc(OC)cc2)n2c1Cc1cc(OC)ccc1-2 [DA-1131, methylcarbamic acid 6-methoxy-3-(4-methoxyphenyl)-2-methylcarbamoyl-oxymethyl-8H-3a-aza-cyclopenta[a]inden-1-ylmethyl ester] | 96.2 nM | [1.55x] | 878 nM | 455 nM | – | – | 63.9 nM | [1.03x] | 62 nM | – | – | – | – | – |
| CC[C@]1(O)C[C@@H]2CN(CCc3c([nH]c4ccccc34)[C@@](C(=O)OC)(c3cc4c(cc3OC)N(C)[C@H]3[C@@](O)(C(=O)OC)[C@H](OC(C)=O)[C@]5(CC)C=CCN6CC[C@]43[C@@H]65)C2)C1 [Vinblastine, reference compound] | 496 nM | [679.5x] | 2.9 nM | 1.8 nM | – | – | 78 nM | – | 0.73 nM | – | – | – | – | – |
